Results published in US20260356846A1, “STATIN DERIVATIVES AND METHODS OF USING THE SAME” (The General Hospital Corporation, priority 2023, published 2026).
Where two headings read alike, the source gives them in different places.

Legend:
[1] = tested on: STMN2 (WT STMN2-NLuc SH-SY5Y cells); assay: STMN2 nanoluciferase assay in WT SH-SY5Y cells (Table A: WT TDP-32; Table B: WT HD Luciferase); format: cell-based, human; details: WT cell line; for maximal fold induction / HD Luciferase (WT, Emax): Emax
Experimental: (§1) Neuroblastoma cells (ATCC) were cultured in DMEM/F12 (Gibco) supplemented with 10% fetal-bovine serum (Omega) and 1% penicillin-streptomycin (Gibco) at 37 °C with 5% CO2. For knockdown experiments, cells were transfected with SMARTpool ON-TARGETplus siRNA or control siRNA pool (D001810-10) (GE Dharmacon) at a final concentration of 50 nM, for 96 h in two doses (0, 24 h), after complexing with Lipofectamin RNAiMAX (Invitrogen) in Opti-MEM (Gibco) for 10 min.
(§2) WT and TDP-mut (N352S) SH-SY5Y cells were edited using CRISPR-Cas9 to express Nanoluciferase at the C-terminus of both endogenous STMN2 alleles. A single guided RNA targeting STMN2 C-terminus was designed (Benchling webtool) and cloned into pSpCas9-2A-green fluorescent protein (GFP) plasmid (px458-Addgene) using the BbsI restriction site. The sequence for guided RNA targeting STMN2 was: […]. For the repair template, overlapping fragments of 800 bp STMN2 homology arms flanking Nanoluciferase (NLuc, Promega) were generated and ligated into pUC57 backbone. A 42 bp GS-linker was also included 5′ to NLuc to prevent steric hindrance of the reporter to the final STMN2 exon. Fragments were ligated using Gibson Assembly and nucleofected simultaneously with pSpCas9-2A-GFP-gRNA plasmid using the Amaxa Nucleofector (assay A-023). Forty-eight hours following electroporation, cells were collected, and GFP-positive cells sorted and single-cell seeded into 96-well plates using the SH800S Sony cell sorter. Individual clones were expanded and DNA was extracted for PCR amplification of the STMN2 Ex5 genomic locus using primers within NLuc and outside the STMN2 5′ homology arm to confirm presence of the insert. The entire STMN2 coding region and all exon-intron junctions (>500-bp length of each intronic region) were then sequenced to verify the absence of any additional DNA alteration. qPCR analysis was performed with a wild-type isogenic SH-SY5Y cell line that had undergone the mutagenesis attempt but not acquired the insertion mutation during the original screening process.
(§3) TDP-mut STMN2-NLuc SH-SY5Y cells were used in small-molecule screening at ICCB-Longwood. 3000 cells/well were plated in white 384-well plates using a 50 ul sample volume. 24 hours after plating, compounds were added using 100 nl pin transfer. 24 hours later, 25 ul NLuc assay was added to each well according to manufacturer instructions (Promega, Cat #). Plates were shaken for 1 min prior to luminescence readings using EnVision2 machine. DMSO-only and WT STMN2-NLuc cells were included as negative and positive controls respectively on each plate, producing an average Z′score of ~0.7 across the screen. Each library plate was conducted in duplicate, and Z-scores calculated for each compound. For subsequent validation experiments, cell numbers in each well were quantified by hoescht staining at 1 μg/ml for 15 mins at 37C in black, clear bottom plates, prior to imaging at 4× using automated microscopy (ImageXpressMicro). Nuclei were then counted using a custom algorithm, and luciferase assay run as above. Luminescence results were then normalised against cell counts as RLU/cell.
(§4) Each compound was tested in triplicate in log doses ranging 0.01 μM−10 μM. The values are represented in luminescence normalized to the number of cells in the well, wherein darker grey correlates to higher RLU per cell and higher STMN2 protein expression.

[2] = tested on: STMN2 (TDP-mut (N352S) STMN2-NLuc SH-SY5Y cells); assay: STMN2 nanoluciferase assay in TDP-43 mutant SH-SY5Y cells (Table A: mut TDP-43; Table B: mut HD Luciferase); format: cell-based, human; details: mutant TDP-43 cell line
Experimental: as §1, §2, §3, §4

[3] = Homo sapiens, SH-SY5Y, Table A, read-out: EC50, WT TDP-32
[4] = Homo sapiens, SH-SY5Y, Table A, read-out: EC50, mut TDP-43
[5] = Homo sapiens, SH-SY5Y, Table B, read-out: EC50, WT HD Luciferase
[6] = Homo sapiens, SH-SY5Y, Table B, read-out: EC50, mut HD Luciferase
[7] = Table B, read-out: EC50, WT HD Luciferase
[8] = Table B, read-out: EC50, mut HD Luciferase

COCc1c(C(C)C)nc(C(C)C)c(/C=C/[C@@H](O)C[C@@H](O)CC(=O)O)c1-c1ccc(F)cc1 [Cerivastatin, cerivastatin, reference compound]
EC50 [1, 3]: 100 to 500 nM | EC50 [2, 4]: ≤ 100 nM

Cc1csc2c(-c3ccc(F)cc3)c(/C=C/[C@@H](O)C[C@@H](O)CC(=O)O)c(C3CC3)nc12 [Example I-1, (3R,5S,E)-7-(5-cyclopropyl-7-(4-fluorophenyl)-3-methylthieno[3,2-b]pyridin-6-yl)-3,5-dihydroxyhept-6-enoic acid]
EC50 [1, 3]: ≤ 100 nM | maximal fold induction ([1]; Homo sapiens, SH-SY5Y, Table B): 1.5 to 1.75 | EC50 [1, 5]: 10 to 50 nM | EC50 [2, 4]: ≤ 100 nM | EC50 [2, 6]: ≤ 10 nM

O=C(O)C[C@H](O)C[C@H](O)/C=C/c1c(C2CC2)nc2scnc2c1-c1ccc(F)cc1 [Example I-2, (3R,5S,E)-7-(5-cyclopropyl-7-(4-fluorophenyl)thiazolo[5,4-b]pyridin-6-yl)-3,5-dihydroxyhept-6-enoic acid]
maximal fold induction ([1]; Homo sapiens, SH-SY5Y, Table B): 1 to 1.25 | EC50 [1, 5]: ≥ 500 nM | EC50 [2, 6]: ≥ 500 nM | HD Luciferase (mut, Emax) ([2]; Table B): * (means≥1 and <1.25)

Cc1nc2c(-c3ccc(F)cc3)c(/C=C/[C@@H](O)C[C@@H](O)CC(=O)O)c(C3CC3)nc2s1 [Example I-3, (3R,5S,E)-7-(5-cyclopropyl-7-(4-fluorophenyl)-2-methylthiazolo[5,4-b]pyridin-6-yl)-3,5-dihydroxyhept-6-enoic acid]
EC50 [1, 3]: ≥ 10000 nM | maximal fold induction ([1]; Homo sapiens, SH-SY5Y, Table B): 1 to 1.25 | EC50 [1, 5]: ≥ 500 nM | EC50 [2, 4]: 5000 to 10000 nM | EC50 [2, 6]: ≥ 500 nM | HD Luciferase (mut, Emax) ([2]; Table B): * (means≥1 and <1.25)

O=C(O)C[C@H](O)C[C@H](O)/C=C/c1c(C2CC2)nc2ccsc2c1-c1ccc(F)cc1 [Example I-4, (3R,5S,E)-7-(5-cyclopropyl-7-(4-fluorophenyl)thieno[3,2-b]pyridin-6-yl)-3,5-dihydroxyhept-6-enoic acid]
EC50 [1, 3]: 100 to 500 nM | EC50 [1, 5]: 10 to 50 nM | EC50 [2, 4]: 100 to 500 nM | EC50 [2, 6]: 10 to 50 nM

Cc1cc2c(-c3ccc(F)cc3)c(/C=C/[C@@H](O)C[C@@H](O)CC(=O)O)c(C3CC3)nc2s1 [Example I-5a, (3R,5S,E)-7-(6-cyclopropyl-4-(4-fluorophenyl)-2-methylthieno[2,3-b]pyridin-5-yl)-3,5-dihydroxyhept-6-enoic acid]
maximal fold induction ([1]; Homo sapiens, SH-SY5Y, Table B): 1 to 1.25 | EC50 [1, 7]: ≥ 500 nM | HD Luciferase (mut, Emax) ([2]; Table B): * (means≥1 and <1.25) | EC50 [2, 8]: ≥ 500 nM

Cc1cc2c(-c3ccc(F)cc3)c(/C=C/[C@@H](O)C[C@@H](O)CC(=O)O)c(C3CC3)nc2s1 [Example I-5b, (3R,5S,E)-7-(6-cyclopropyl-4-(4-fluorophenyl)-2-methylthieno[2,3-b]pyridin-5-yl)-3,5-dihydroxyhept-6-enoic acid]
HD Luciferase (WT, Emax) ([1]; Table B): ** (means≥1.25 and <1.5) | EC50 [1, 7]: 100 to 500 nM | HD Luciferase (mut, Emax) ([2]; Table B): ** (means≥1.25 and <1.5) | EC50 [2, 8]: 50 to 100 nM

Cc1cc2c(-c3ccc(F)cc3)c(/C=C/[C@@H](O)C[C@@H](O)CC(=O)O)c(C3CC3)nc2s1 [Example I-5c, (3R,5S,E)-7-(6-cyclopropyl-4-(4-fluorophenyl)-2-methylthieno[2,3-b]pyridin-5-yl)-3,5-dihydroxyhept-6-enoic acid]
HD Luciferase (WT, Emax) ([1]; Table B): ** (means≥1.25 and <1.5) | EC50 [1, 7]: 100 to 500 nM | EC50 [2, 8]: 100 to 500 nM

Cc1cc2nc(C3CC3)c(/C=C/[C@@H](O)C[C@@H](O)CC(=O)O)c(-c3ccc(F)cc3)c2s1 [Example I-6, (3R,5S,E)-7-(5-cyclopropyl-7-(4-fluorophenyl)-2-methylthieno[3,2-b]pyridin-6-yl)-3,5-dihydroxyhept-6-enoic acid]
maximal fold induction ([1]; Homo sapiens, SH-SY5Y, Table B): 1.25 to 1.5 | EC50 [1, 5]: 10 to 50 nM | EC50 [2, 6]: 10 to 50 nM

Cc1nc2c(-c3ccc(F)cc3)c(/C=C/[C@@H](O)C[C@@H](O)CC(=O)O)c(C3CC3)cc2s1 [Example I-7, (3R,5S,E)-7-(6-cyclopropyl-4-(4-fluorophenyl)-2-methylbenzo[d]thiazol-5-yl)-3,5-dihydroxyhept-6-enoic acid]
EC50 [1, 3]: 1000 to 5000 nM | maximal fold induction ([1]; Homo sapiens, SH-SY5Y, Table B): 1 to 1.25 | EC50 [1, 5]: 100 to 500 nM | EC50 [2, 4]: 1000 to 5000 nM | EC50 [2, 6]: 100 to 500 nM | HD Luciferase (mut, Emax) ([2]; Table B): ** (means≥1.25 and <1.5)

Cc1nc2cc(C3CC3)c(/C=C/[C@@H](O)C[C@@H](O)CC(=O)O)c(-c3ccc(F)cc3)c2s1 [Example I-8, (3R,5S,E)-7-(5-cyclopropyl-7-(4-fluorophenyl)-2-methylbenzo[d]thiazol-6-yl)-3,5-dihydroxyhept-6-enoic acid]
EC50 [1, 3]: 100 to 500 nM | maximal fold induction ([1]; Homo sapiens, SH-SY5Y, Table B): 1.25 to 1.5 | EC50 [1, 5]: 10 to 50 nM | EC50 [2, 4]: 100 to 500 nM | EC50 [2, 6]: 10 to 50 nM

O=C(O)C[C@H](O)C[C@H](O)/C=C/c1c(C2CC2)cc2scnc2c1-c1ccc(F)cc1 [Example I-9, (3R,5S,E)-7-(6-cyclopropyl-4-(4-fluorophenyl)benzo[d]thiazol-5-yl)-3,5-dihydroxyhept-6-enoic acid]
EC50 [1, 3]: ≥ 10000 nM | maximal fold induction ([1]; Homo sapiens, SH-SY5Y, Table B): 1 to 1.25 | EC50 [1, 5]: ≥ 500 nM | EC50 [2, 4]: 5000 to 10000 nM | EC50 [2, 6]: ≥ 500 nM | HD Luciferase (mut, Emax) ([2]; Table B): * (means≥1 and <1.25)

Cc1csc2nc(C3CC3)c(/C=C/[C@@H](O)C[C@@H](O)CC(=O)O)c(-c3ccc(F)cc3)c12 [Example I-10, (3R,5S,E)-7-(6-cyclopropyl-4-(4-fluorophenyl)-3-methylthieno[2,3-b]pyridin-5-yl)-3,5-dihydroxyhept-6-enoic acid]
EC50 [1, 5]: 10 to 50 nM | EC50 [2, 6]: 10 to 50 nM

O=C(O)C[C@H](O)C[C@H](O)/C=C/c1c(C2CC2)cc2ncsc2c1-c1ccc(F)cc1 [Example I-11, (3R,5S,E)-7-(5-cyclopropyl-7-(4-fluorophenyl)benzo[d]thiazol-6-yl)-3,5-dihydroxyhept-6-enoic acid]
EC50 [1, 5]: 10 to 50 nM | EC50 [2, 6]: 10 to 50 nM | HD Luciferase (mut, Emax) ([2]; Table B): ** (means≥1.25 and <1.5)

Cc1cc(F)ccc1-c1c(/C=C/[C@@H](O)C[C@@H](O)CC(=O)O)c(C2CC2)nc2c(C)csc12 [Example I-13, (3R,5S,E)-7-(5-cyclopropyl-7-(4-fluoro-2-methylphenyl)-3-methylthieno[3,2-b]pyridin-6-yl)-3,5-dihydroxyhept-6-enoic acid]
EC50 [1, 5]: 10 to 50 nM | EC50 [2, 6]: 10 to 50 nM

Cc1csc2c(-c3ccc(F)cc3Cl)c(/C=C/[C@@H](O)C[C@@H](O)CC(=O)O)c(C3CC3)nc12 [Example I-15, (3R,5S,E)-7-(7-(2-chloro-4-fluorophenyl)-5-cyclopropyl-3-methylthieno[3,2-b]pyridin-6-yl)-3,5-dihydroxyhept-6-enoic acid]
EC50 [1, 5]: 10 to 50 nM | EC50 [2, 6]: 10 to 50 nM

O=C(O)C[C@H](O)C[C@H](O)/C=C/c1c(C2CC2)nc2c(C3CC3)csc2c1-c1ccc(F)cc1 [Example I-25, (3R,5S,E)-7-(3,5-dicyclopropyl-7-(4-fluorophenyl)thieno[3,2-b]pyridin-6-yl)-3,5-dihydroxyhept-6-enoic acid]
maximal fold induction ([1]; Homo sapiens, SH-SY5Y, Table B): 1.5 to 1.75 | EC50 [1, 5]: 10 to 50 nM | EC50 [2, 6]: 10 to 50 nM

Cc1csc2c(-c3ccc(F)cc3)c(/C=C/[C@@H](O)C[C@@H](O)CC(=O)N(C)C)c(C3CC3)nc12 [Example I-26, (3R,5S,E)-7-(5-cyclopropyl-7-(4-fluorophenyl)-3-methylthieno[3,2-b]pyridin-6-yl)-3,5-dihydroxy-N,N-dimethylhept-6-enamide]
maximal fold induction ([1]; Homo sapiens, SH-SY5Y, Table B): 1 to 1.25 | EC50 [1, 5]: ≥ 500 nM | EC50 [2, 6]: ≥ 500 nM | HD Luciferase (mut, Emax) ([2]; Table B): * (means≥1 and <1.25)
